Measured values from PubChem BioAssay (NCI).
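Five concentrations, 48 hours, 96-well plates. Here, GI50 denotes the concentration required for 50% inhibition of growth. TGI denotes the concentration required for complete inhibition of growth.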

Tested on: MDA-MB-468 breast
Test: inhibition of tumour cell growth, NCI panel, 48 h

Structure (SMILES): O=S(=O)(NCCNc1cc(-c2cn(-c3ccccc3)nc2-c2cccc(O)c2)ccn1)c1ccc(Br)cc1
- GI50: 2.7 µM
- TGI: 7.79 µM

Structure (SMILES): Clc1ccc(COC(Cn2ccnc2)c2ccc(Cl)cc2Cl)c(Cl)c1 (centres undefined)
- GI50: 1.84 µM
- TGI: 5.13 µM

Structure (SMILES): CCCCCC(=C/c1ccccc1)/C=N/N=C(N)N
- GI50: 1.56 µM
- TGI: 3 µM

Structure (SMILES): COC1C(O)CC(OC2CC(OC3CC(O[C@@H]4C(=O)c5c(cc6cc(OC7CC(OC8CC(O)C(O)C(C)O8)C(O)C(C)O7)c(C)c(O)c6c5O)CC4[C@H](OC)[C@@H](O)C(C)=O)OC(C)C3O)OC(C)C2O)OC1C (some centres undefined)
- GI50: 0.0256 µM
- TGI: 2.65 µM

Structure (SMILES): Cc1ccccc1C[P+](c1ccccc1)(c1ccccc1)c1ccccc1
- GI50: 0.265 µM
- TGI: 1.16 µM

Structure (SMILES): Cc1cc(C)c(O)c(CNCCCNCc2cc(C)cc(C)c2O)c1
- GI50: 1.69 µM
- TGI: 3.24 µM

Structure (SMILES): CCCC(=O)Nc1c(I)cc(I)c(CC(CC)C(=O)O)c1I (centres undefined)
- GI50: > 100 µM
- TGI: > 100 µM

Structure (SMILES): C=C1C(=O)O[C@H]2[C@H]1CC/C(Cn1cc(-c3ccsc3)nn1)=C\CC[C@@]1(C)O[C@@H]21
- GI50: 1.28 µM
- TGI: 3.56 µM

Structure (SMILES): O=C1CCC(N2C(=O)c3cccc(NCCOCCOCCNC(=O)c4cc5c(o4)C(=O)c4ccccc4C5=O)c3C2=O)C(=O)N1 (centres undefined)
- GI50: 1.46 µM
- TGI: 3.88 µM

Structure (SMILES): Cc1ccc2c(n1)C(=O)C(Cl)=C(Nc1ccc(C#N)cc1)C2=O
- GI50: 1.78 µM
- TGI: 3.81 µM

Structure (SMILES): O=C(Nc1ccc(-n2ccc3c(NC(=O)c4ccccc4)nccc32)cc1)c1ccc(N2CCOCC2)c(C(F)(F)F)c1
- GI50: 1.74 µM
- TGI: 19.2 µM

Structure (SMILES): CCCCCCCCCC[N+](C)(C)C
- GI50: 0.43 µM
- TGI: 2.79 µM

Structure (SMILES): CN1CCN(Cc2ccc(NC(=O)c3cccc(C#Cc4c(N)ncc5ccc(F)cc45)c3)cc2C(F)(F)F)CC1
- GI50: 0.888 µM
- TGI: 1.83 µM

Structure (SMILES): CC[C@]12C=CCN3CC[C@@]4(c5cc(NC(=O)COc6cc(O)c7c(=O)cc(-c8ccccc8)oc7c6)c(OC)cc5N(C)[C@H]4[C@@](O)(C(=O)OC)[C@@H]1OC(C)=O)[C@@H]32
- GI50: 1.52 µM
- TGI: 3 µM

Structure (SMILES): CCCc1n(Cc2ccc3ccccc3n2)cc[n+]1Cc1ccc2ccccc2c1
- GI50: 0.273 µM
- TGI: 1.49 µM

Structure (SMILES): COC(=O)CCCNC(=O)C(=O)c1c(O)c(O)c(C(C)C)c2cc(C)c(-c3c(C)cc4c(C(C)C)c(O)c(O)c(C(=O)C(=O)NCCCC(=O)OC)c4c3O)c(O)c12
- GI50: 0.364 µM
- TGI: 2.97 µM

Structure (SMILES): COCC(=O)NC/C=C/c1ccc2ncnc(Nc3ccc(Oc4ccc(C)nc4)c(C)c3)c2c1
- GI50: 1.96 µM
- TGI: 10.3 µM

Structure (SMILES): CN1CCN(c2ccc(-c3cccc(CN4CCOCC4)c3)cc2NC(=O)c2c[nH]c(=O)cc2C(F)(F)F)CC1
- GI50: 20.2 µM
- TGI: 92.5 µM

Structure (SMILES): COc1ccc(-c2cc(-c3ccc(Cl)cc3)nc(SCCCCCCC(=O)NO)n2)cc1
- GI50: 1.64 µM
- TGI: 7.19 µM

Structure (SMILES): COc1c2occc2cc2ccc(=O)oc12
- GI50: > 100 µM
- TGI: > 100 µM

Structure (SMILES): COc1ccc(C(=O)c2cc(C)c(OC)c(C)c2)c(OC)c1N(C(=O)CCl)C(=O)CCl
- GI50: 0.0296 µM
- TGI: 1.37 µM

Structure (SMILES): O=C(Nc1ccc(N2CCNCC2)cn1)c1[nH]ncc1Nc1ncnc2sccc12
- GI50: 1.69 µM
- TGI: 3.42 µM

Structure (SMILES): C#C[C@]1(O)CC[C@H]2[C@@H]3CC=C4c5sc(Nc6ccc(C)cn6)nc5CC[C@]4(C)[C@H]3CC[C@@]21C
- GI50: 1.07 µM
- TGI: 3.13 µM

Structure (SMILES): COC(=O)[C@H](Cc1cn(C)cn1)NC(=O)[C@@H](NC(=O)Nc1cc(C(F)(F)F)cc(C(F)(F)F)c1)C(C)(C)C
- GI50: > 10 µM
- TGI: > 10 µM

Structure (SMILES): NC(Cc1c[nH]c2cc(F)ccc12)C(=O)O (centres undefined)
- GI50: 1010 µM
- TGI: > 2500 µM

Structure (SMILES): C=C(C)[C@@H]1CC[C@]2(CN)CC[C@]3(C)[C@H](CC[C@@H]4[C@@]5(C)CCC(N)[C@@](C)(CO)[C@@H]5CC[C@]43C)[C@@H]12 (some centres undefined)
- GI50: 1.77 µM
- TGI: 3.42 µM

Structure (SMILES): N#Cc1ccc(NC(=O)Nc2nc3ccc(OC(F)(F)F)cc3s2)cc1
- GI50: 0.46 µM
- TGI: 4.84 µM
